{"source": "patent US11485987B2", "about": "“Methods for inducing bioorthogonal reactivity” (University of Delaware, priority 2015, dated 2022)", "key": {"[1]": {"experiment": "Dihydrotetrazine oxidative stability (UV-vis)", "format": "physicochemical", "source_text": "A challenge to the development of catalytic methods for turning on the tetrazine ligation was the identification of a DHTz/Tz pair that would be stable in both oxidation states (FIG. 1, panel B). For most redox couples, either the DHTz is too readily oxidized in air (e.g., 1), or the Tz is too reactive toward water and other nucleophiles (e.g., 2). The inventors show here that the dipyridyl DHTz/Tz pair (3/4) has good stability in both states (FIG. 1, panel C). Dihydrotetrazines 3 are highly resistant toward background oxidation in organic solvents, and a number of derivatives have been synthesized and shown stable even to silica gel chromatography. […] Aqueous solutions of 3a were handled in glassware that had been first rinsed with 2.0 mM EDTA in PBS to remove adventitious metal impurities. After standing in the dark at 25° C. in PBS buffer, a solution of 3a was monitored by UV-vis and shown to retain 99 and 96% of the DHTz oxidation state over 30 min and 2.5 hours respectively. […] In PBS containing 10% mouse serum, 90% of 3a was retained in the DHTz oxidation state after 1 h. Analogs of tetrazines 4 have been described previously and used broadly for applications in nuclear medicine and cell imaging. […] The stability of a radiolabeled derivative of tetrazine 4b has been studied by Robillard at 37° C. in PBS, serum and blood, with 97%, 87% and 59% retention of the tetrazine observed after 2 hours.\nA solution (3 mL) containing 3a (35 μM) in PBS buffer was prepared in a cuvette from stock solutions. Oxidation was monitored by recording solution absorbance at 0, 30 and 150 minutes. The cuvette was stored in the dark between measurements. Comparison of HRP, cytochrome C and hemoglobin: Solutions (1 mL) of 3a (30 μM) in PBS buffer were prepared in a cuvette from stock solutions. To the solutions, either hemoglobin ([…]) or cytochrome C (9 μM) were added and while oxidation was monitored every 30 seconds by measuring absorbance at 325 nm."}, "[2]": {"experiment": "Methylene blue catalyzed photooxidation of DHTz to tetrazine", "description": "Upon addition of horseradish peroxidase (15 nM) the UV-vis spectrum was monitored every 10 seconds. With 50% conversion after 100 seconds, complete conversion of 3a to 4a is observed after 600 seconds, as evidenced by the decrease in the absorption at 292 nm and increase at 325 nm with an isosbestic point at 303 nm. Similar spectral changes are observed when 3a is electrochemically oxidized to 4a in aqueous solution, or when the oxidation of 3a to 4a is photocatalyzed by methylene blue. […] Methylene blue was considered a particularly attractive sensitizer due to its clinical relevance, low molecular weight, low toxicity, high solubility, and an absorption spectrum (λmax 665 nm) that extends to the near IR. Further, methylene blue has previously been explored for applications in photodynamic therapy based on oxidation of indole-3-acetic acid. Rose bengal (λmax 550 nm), used in a range of biomedical applications, was also identified as an excellent sensitizer. […] […] […] The mechanism of photooxidation more likely involves electron transfer and is the subject of ongoing study.\nThus, a PBS solution of 3a was sparged with 98% nitrogen and 2% air, such that the final O2 concentration was 5 μM.\nOxidation of 3a to 4a was monitored by recording absorbance at 325 nm every 30 seconds. Cuvettes for these experiments were washed with EDTA/PBS as described in the General Considerations (section 2.1). […]"}, "F41A APEX2": {"molecular_target": "T1, F41A APEX2 (Glycine max, UniProt Q43758, A134P/E112K/K14D/W41A)", "T1 sequence (Q43758 1-250 A134P/E112K/K14D/W41A)": "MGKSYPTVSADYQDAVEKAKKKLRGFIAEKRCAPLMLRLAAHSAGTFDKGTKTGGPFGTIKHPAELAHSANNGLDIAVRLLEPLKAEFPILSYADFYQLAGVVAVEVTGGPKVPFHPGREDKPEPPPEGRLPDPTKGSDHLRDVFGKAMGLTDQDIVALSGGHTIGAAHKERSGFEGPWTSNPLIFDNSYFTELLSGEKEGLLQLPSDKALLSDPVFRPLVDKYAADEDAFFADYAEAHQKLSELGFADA", "experiment": "Oxidation of DHT by F41A APEX2, UV-Vis initial rates and kinetic parameters", "format": "biochemical", "details": "for Initial rate of oxidation of DHT by F41A APEX2 + SOD: SOD 1 μM, PBS, 100 μM EDTA, first 100 s", "description": "UV-Vis and fluorescence measurements were conducted in quartz cuvettes. All reactions were conducted in phosphate buffered saline (PBS) containing 100 μM EDTA with a pH=7.4. The PBS was prepared by adding 25 mM phosphate salts (Na2HPO4 and NaH2PO4), 100 mM NaCl, 100 μM EDTA to DI water. EDTA was added to quench free metals that can oxidize DHT. The buffer was pH adjusted to 7.4 using 1 mM HCl and 1 mM NaOH. UV experiments were stirred at 25° C. in a temperature-controlled cuvette holder of the spectrophotometer. Solutions of 15 or 16 were prepared from methanol stock solutions.\nSOD (1 μM) was added to PBS containing 100 μM EDTA. 15 or 16 (60 μM) was added from methanol stock solutions. After 10s, APEX2 (SEQ ID NO:1) or F41A APEX2 (275 nM) was dosed in and oxidation was monitored at 325 nm for 15 and 285 nm for 16 at 60s intervals.\nThe initial rate of oxidation was calculated from the first 100 seconds after APEX2 (SEQ ID NO:1) or F41A APEX2 was added ([…]). In the assays where SOD was added, SOD (1 μM) was added to PBS containing 100 μM EDTA and 15 or 16 was dosed in. 10 seconds later, APEX2 (SEQ ID NO:1) or F41A APEX2 ([…]) was added and the rate of oxidation was calculated from the first 100 seconds after APEX2 (SEQ ID NO:1) or F41A APEX2 ([…]) addition. The initial rate of oxidation was adjusted to background oxidation of DHT in PBS with 100 μM EDTA. Kinetic parameters (Table 2) were determined using GraphPad's Prism 6 software from the data presented below (Table 3-4)."}}, "data": [{"smiles": "O=C(O)CCC(=O)Nc1ccc(C2=NNC(c3ccccn3)=NN2)nc1", "note": "[3a, 4-oxo-4-((6-(6-(pyridin-2-yl)-1,4-dihydro-1,2,4,5-tetrazin-3-yl)pyridin-3-yl)amino)butanoic Acid]", "values": [{"measurement": "retained DHTz oxidation state", "setting": "[1]; 35 μM in MeOH, ambient light, 1 hour", "result": 99, "unit": "%"}, {"measurement": "retained DHTz oxidation state", "setting": "[1]; 35 μM in MeOH, ambient light, 2 hours", "result": 98, "unit": "%"}, {"measurement": "retained DHTz oxidation state", "setting": "[1]; PBS buffer, ambient light, 25° C., 1 hour", "result": 97, "unit": "%"}, {"measurement": "retained DHTz oxidation state", "setting": "[1]; PBS buffer, ambient light, 25° C., 2 hours", "result": 94, "unit": "%"}, {"measurement": "retained DHTz oxidation state", "setting": "[1]; PBS buffer, dark, 25° C., 30 min", "result": 99, "unit": "%"}, {"measurement": "retained DHTz oxidation state", "setting": "[1]; PBS buffer, dark, 25° C., 2.5 hours", "result": 96, "unit": "%"}, {"measurement": "time to quantitative conversion to tetrazine 4a", "setting": "[2]; 3a 21 μM, methylene blue 4 μM, 660 nm LED 9.1 mW/cm^2, pH 7.4 PBS", "result": "≤ 200", "unit": "s"}, {"measurement": "time to complete conversion of 3a to 4a", "setting": "[2]; hypoxia model, O2 5 μM, methylene blue 7 μM, 660 nm", "result": "≤ 30", "unit": "min"}, {"measurement": "conversion of 3a to 4a", "setting": "[2]; methylene blue 4 μM, ambient light, 2 h", "result": 47, "unit": "%"}]}, {"smiles": "O=C(O)CCCC(=O)Nc1ccc(C2=NNC(c3ccccn3)=NN2)nc1", "note": "[compound 15]", "values": [{"measurement": "Initial rate of oxidation of DHT by F41A APEX2 + SOD", "setting": "F41A APEX2; DHT 5 μM", "result": "1.080 +/− 0.113 ×10^−8 M/s"}, {"measurement": "Initial rate of oxidation of DHT by F41A APEX2 + SOD", "setting": "F41A APEX2; DHT 10 μM", "result": "2.625 +/− 0.177 ×10^−8 M/s"}, {"measurement": "Initial rate of oxidation of DHT by F41A APEX2 + SOD", "setting": "F41A APEX2; DHT 15 μM", "result": "2.549 +/− 0.145 ×10^−8 M/s"}, {"measurement": "Initial rate of oxidation of DHT by F41A APEX2 + SOD", "setting": "F41A APEX2; DHT 20 μM", "result": "3.629 +/− 0.413 ×10^−8 M/s"}, {"measurement": "Initial rate of oxidation of DHT by F41A APEX2 + SOD", "setting": "F41A APEX2; DHT 25 μM", "result": "3.863 +/− 0.163 ×10^−8 M/s"}, {"measurement": "Initial rate of oxidation of DHT by F41A APEX2 + SOD", "setting": "F41A APEX2; DHT 30 μM", "result": "5.019 +/− 0.089 ×10^−8 M/s"}, {"measurement": "Initial rate of oxidation of DHT by F41A APEX2 + SOD", "setting": "F41A APEX2; DHT 40 μM", "result": "5.758 +/− 0.855 ×10^−8 M/s"}, {"measurement": "Initial rate of oxidation of DHT by F41A APEX2 + SOD", "setting": "F41A APEX2; DHT 50 μM", "result": "5.978 +/− 0.304 ×10^−8 M/s"}, {"measurement": "Initial rate of oxidation of DHT by F41A APEX2 + SOD", "setting": "F41A APEX2; DHT 60 μM", "result": "7.688 +/− 0.698 ×10^−8 M/s"}, {"measurement": "Initial rate of oxidation of DHT by F41A APEX2 + SOD", "setting": "F41A APEX2; DHT 70 μM", "result": "7.685 +/− 0.869 ×10^−8 M/s"}, {"measurement": "Initial rate of oxidation of DHT by F41A APEX2 + SOD", "setting": "F41A APEX2; DHT 75 μM", "result": "10.059 +/− 0.594 ×10^−8 M/s"}, {"measurement": "Initial rate of oxidation of DHT by F41A APEX2 + SOD", "setting": "F41A APEX2; DHT 85 μM", "result": "12.425 +/− 0.046 ×10^−8 M/s"}, {"measurement": "factor of increase of rate of catalysis versus APEX2 (SEQ ID NO:1)", "setting": "F41A APEX2; F41A APEX2 mutant with SOD", "result": 7}]}]}
